Measurements from PMC11845477, “Exploring the principles behind antibiotics with limited resistance” (Nature Communications, 2025).

System: P. aeruginosa ATCC BAA-3107 (SEN) and P. aeruginosa LESB58 (MDR)
Test: Adaptive laboratory evolution (ALE), relative MIC of evolved lines
Type: cell-based, Pseudomonas aeruginosa
Text: Using the same set of bacterial strains, we initiated adaptive laboratory evolution with the aim to maximize the level of antibiotic resistance in the populations achieved during a longer, but fixed time period.
An established protocol for adaptive laboratory evolution[46],[73] was followed to propagate populations with the highest resistance levels. Starting with an antibiotic concentration that caused approximately 50% growth inhibition, ten parallel populations for each antibiotic-ancestor strain combination were grown for 72 hours at 37 °C with continuous shaking (300 RPM). MHB broth medium was used unless stated otherwise. After each incubation, 20 µl of each culture was transferred to four new wells containing fresh medium with increasing antibiotic concentrations (0.5×, 1×, 1.5×, and 2.5× the previous concentration) in a chessboard layout to monitor potential cross-contamination. Growth was monitored by measuring OD600 using a Biotek Synergy 2 microplate reader, and only populations grown in the highest drug concentration with an OD600 > 0.2 were transferred further.
A robotic liquid handling system was used to automatically prepare a 11 to 16-step serial dilution in 384-well microtiter plates (Greiner). A final concentration of 5 × 10^5 bacterial cells per mL were inoculated into each well containing 60 µL MHB medium. Bacterial cultures were incubated at 37 °C with continuous shaking (Infors shaker, 900 rpm with 3 mm throw) for 18 hours (2 replicates from each). Cell growth was monitored by measuring the optical density (OD600 values, using Biotek Synergy microplate reader). MIC was defined as the antibiotic concentration of complete growth inhibition (i.e., OD600 < 0.05). Relative MIC was calculated as follows:1 relativeMIC=MICevolved/MICancestor […]
Supplementary Figure 4. Resistance levels following adaptive laboratory evolution across bacterial strains. The level of resistance was measured as the fold change in relative MIC between evolved and ancestral strains after ~60 days of adaptive laboratory evolution. Data are grouped by bacterial strain (A. baumannii (AB), E. coli (EC), K. pneumoniae (KP), and P. aeruginosa (PA)) and categorized as either multidrug-resistant (MDR) or sensitive (SEN). Each data point represents a laboratory evolved line, and boxplots show the median, first and third quartiles, with whiskers indicating the 5th and 95th percentiles.
Statistical analysis was performed using two-sided Dunn’s post-hoc test with Benjamini-Hochberg correction for multiple comparisons (****/ ***/ **/ * indicates p < 0.0001/ 0.001/ 0.01/ 0.05). For detailed information on antibiotic and bacterial species, see Supplementary Table 1. For mode of action groups, refer to Table 1. Source data are provided as a Source Data file.

[1] = PA-SEN (Pseudomonas aeruginosa ATCC BAA 3107), evolved line 2 adapted to the named antibiotic
[2] = PA-SEN (Pseudomonas aeruginosa ATCC BAA 3107), evolved line 4 adapted to the named antibiotic
[3] = PA-SEN (Pseudomonas aeruginosa ATCC BAA 3107), evolved line 10 adapted to the named antibiotic
[4] = PA-SEN, Pseudomonas aeruginosa ATCC BAA 3107, evolved line 1
[5] = PA-SEN, Pseudomonas aeruginosa ATCC BAA 3107, evolved line 1 versus ancestor
[6] = PA-SEN, Pseudomonas aeruginosa ATCC BAA 3107, evolved line 2
[7] = PA-SEN, Pseudomonas aeruginosa ATCC BAA 3107, evolved line 2 versus ancestor
[8] = PA-SEN, Pseudomonas aeruginosa ATCC BAA 3107, evolved line 3
[9] = PA-SEN, Pseudomonas aeruginosa ATCC BAA 3107, evolved line 3 versus ancestor
[10] = PA-SEN, Pseudomonas aeruginosa ATCC BAA 3107, evolved line 4
[11] = PA-SEN, Pseudomonas aeruginosa ATCC BAA 3107, evolved line 4 versus ancestor
[12] = PA-SEN, Pseudomonas aeruginosa ATCC BAA 3107, evolved line 5
[13] = PA-SEN, Pseudomonas aeruginosa ATCC BAA 3107, evolved line 5 versus ancestor
[14] = PA-SEN, Pseudomonas aeruginosa ATCC BAA 3107, evolved line 6
[15] = PA-SEN, Pseudomonas aeruginosa ATCC BAA 3107, evolved line 6 versus ancestor
[16] = PA-SEN, Pseudomonas aeruginosa ATCC BAA 3107, evolved line 7
[17] = PA-SEN, Pseudomonas aeruginosa ATCC BAA 3107, evolved line 7 versus ancestor
[18] = PA-SEN, Pseudomonas aeruginosa ATCC BAA 3107, evolved line 8
[19] = PA-SEN, Pseudomonas aeruginosa ATCC BAA 3107, evolved line 8 versus ancestor
[20] = PA-SEN, Pseudomonas aeruginosa ATCC BAA 3107, evolved line 9
[21] = PA-SEN, Pseudomonas aeruginosa ATCC BAA 3107, evolved line 9 versus ancestor
[22] = PA-SEN, Pseudomonas aeruginosa ATCC BAA 3107, evolved line 10
[23] = PA-SEN, Pseudomonas aeruginosa ATCC BAA 3107, evolved line 10 versus ancestor
[24] = PA-SEN (Pseudomonas aeruginosa ATCC BAA 3107), evolved line 1 adapted to the named antibiotic
[25] = PA-SEN (Pseudomonas aeruginosa ATCC BAA 3107), evolved line 6 adapted to the named antibiotic
[26] = PA-SEN (Pseudomonas aeruginosa ATCC BAA 3107), evolved line 9 adapted to the named antibiotic
[27] = PA-MDR (Pseudomonas aeruginosa LESB 58), evolved line 1
[28] = PA-MDR (Pseudomonas aeruginosa LESB 58), evolved line 6
[29] = PA-MDR, Pseudomonas aeruginosa LESB 58, evolved line 9
[30] = PA-MDR, Pseudomonas aeruginosa LESB 58, evolved line 10
[31] = PA-MDR, Pseudomonas aeruginosa LESB 58, evolved line 2
[32] = PA-MDR, Pseudomonas aeruginosa LESB 58, evolved line 3
[33] = PA-MDR, Pseudomonas aeruginosa LESB 58, evolved line 4
[34] = PA-MDR, Pseudomonas aeruginosa LESB 58, evolved line 5
[35] = PA-MDR, Pseudomonas aeruginosa LESB 58, evolved line 7
[36] = PA-MDR, Pseudomonas aeruginosa LESB 58, evolved line 8

SMILES: CN(C)[C@@H]1C(O)=C(C(N)=O)C(=O)[C@@]2(O)C(O)=C3C(=O)c4c(O)c(NC(=O)CN5CCCC5)cc(F)c4C[C@H]3C[C@@H]12 [Eravacycline]
- Relative MIC (log10) [1]: 1.505
- Relative MIC (log10) [2]: 1.505
- Relative MIC (log10) (PA-SEN (Pseudomonas aeruginosa ATCC BAA 3107), evolved line 5 adapted to the named antibiotic): 1.806
- Relative MIC (log10) (PA-SEN (Pseudomonas aeruginosa ATCC BAA 3107), evolved line 7 adapted to the named antibiotic): 1.204
- Relative MIC (log10) [3]: 1.505
- MIC of evolved line [4]: 128 µg/mL
- Relative MIC [5]: 32
- MIC of evolved line [6]: 128 µg/mL
- Relative MIC [7]: 32
- MIC of evolved line [8]: 256 µg/mL
- Relative MIC [9]: 64
- MIC of evolved line [10]: 128 µg/mL
- Relative MIC [11]: 32
- MIC of evolved line [12]: 256 µg/mL
- Relative MIC [13]: 64
- MIC of evolved line [14]: 128 µg/mL
- Relative MIC [15]: 32
- MIC of evolved line [16]: 64 µg/mL
- Relative MIC [17]: 16
- MIC of evolved line [18]: 64 µg/mL
- Relative MIC [19]: 16
- MIC of evolved line [20]: 64 µg/mL
- Relative MIC [21]: 16
- MIC of evolved line [22]: 128 µg/mL
- Relative MIC [23]: 32
- Relative MIC (Pseudomonas aeruginosa ATCC BAA 3107 (PA-SEN), evolved line 1): 32
- Relative MIC (Pseudomonas aeruginosa ATCC BAA 3107 (PA-SEN), evolved line 2): 32
- Relative MIC (Pseudomonas aeruginosa ATCC BAA 3107 (PA-SEN), evolved line 3): 64
- Relative MIC (Pseudomonas aeruginosa ATCC BAA 3107 (PA-SEN), evolved line 4): 32
- Relative MIC (Pseudomonas aeruginosa ATCC BAA 3107 (PA-SEN), evolved line 5): 64
- Relative MIC (Pseudomonas aeruginosa ATCC BAA 3107 (PA-SEN), evolved line 6): 32
- Relative MIC (Pseudomonas aeruginosa ATCC BAA 3107 (PA-SEN), evolved line 7): 16
- Relative MIC (Pseudomonas aeruginosa ATCC BAA 3107 (PA-SEN), evolved line 8): 16
- Relative MIC (Pseudomonas aeruginosa ATCC BAA 3107 (PA-SEN), evolved line 9): 16
- Relative MIC (Pseudomonas aeruginosa ATCC BAA 3107 (PA-SEN), evolved line 10): 32

SMILES: CNC(C)C1CCC(N)C(OC2C(N)CC(N)C(OC3OCC(C)(O)C(NC)C3O)C2O)O1 (stereo not shown) [Gentamicin]
- Relative MIC (log10) [24]: 2.107
- Relative MIC (log10) [1]: 1.806
- Relative MIC (log10) [25]: 1.806
- Relative MIC (log10) [26]: 2.107
- Relative MIC (log10) [3]: 2.408
- MIC of evolved line [4]: 128 µg/mL
- Relative MIC [4]: 128
- Relative MIC [5]: 128
- MIC of evolved line [6]: 64 µg/mL
- Relative MIC [6]: 64
- Relative MIC [7]: 64
- MIC of evolved line [10]: 128 µg/mL
- Relative MIC [10]: 128
- Relative MIC [11]: 128
- MIC of evolved line [14]: 64 µg/mL
- Relative MIC [14]: 64
- Relative MIC [15]: 64
- MIC of evolved line [18]: 256 µg/mL
- Relative MIC [18]: 256
- Relative MIC [19]: 256
- MIC of evolved line [20]: 128 µg/mL
- Relative MIC [20]: 128
- Relative MIC [21]: 128
- MIC of evolved line [22]: 256 µg/mL
- Relative MIC [22]: 256
- Relative MIC [23]: 256

SMILES: O=c1ccc2ncc(=O)n3c2n1C[C@H]3CN1CCC(NCc2cc3c(cn2)OCCC3)CC1 [Gepotidacin]
- MIC of evolved line [27]: 128 µg/mL
- Relative MIC [27]: 32
- Relative MIC (log10) (PA-MDR (Pseudomonas aeruginosa LESB 58), evolved line 1 adapted to the named antibiotic): 1.505
- Relative MIC (log10) (PA-MDR (Pseudomonas aeruginosa LESB 58), evolved line 2 adapted to the named antibiotic): 1.505
- Relative MIC (log10) (PA-MDR (Pseudomonas aeruginosa LESB 58), evolved line 5 adapted to the named antibiotic): 1.505
- MIC of evolved line [28]: 128 µg/mL
- Relative MIC [28]: 32
- Relative MIC (log10) (PA-MDR (Pseudomonas aeruginosa LESB 58), evolved line 7 adapted to the named antibiotic): 1.505
- Relative MIC (log10) (PA-MDR (Pseudomonas aeruginosa LESB 58), evolved line 8 adapted to the named antibiotic): 1.505
- Relative MIC (PA-MDR, Pseudomonas aeruginosa LESB 58, evolved line 1 versus ancestor): 32
- Relative MIC (PA-MDR, Pseudomonas aeruginosa LESB 58, evolved line 2 versus ancestor): 32
- Relative MIC (PA-MDR, Pseudomonas aeruginosa LESB 58, evolved line 3 versus ancestor): 32
- Relative MIC (PA-MDR, Pseudomonas aeruginosa LESB 58, evolved line 4 versus ancestor): 32
- Relative MIC (PA-MDR, Pseudomonas aeruginosa LESB 58, evolved line 5 versus ancestor): 32
- Relative MIC (PA-MDR, Pseudomonas aeruginosa LESB 58, evolved line 6 versus ancestor): 32
- Relative MIC (PA-MDR, Pseudomonas aeruginosa LESB 58, evolved line 7 versus ancestor): 32
- Relative MIC (PA-MDR, Pseudomonas aeruginosa LESB 58, evolved line 8 versus ancestor): 32
- MIC of evolved line [29]: 64 µg/mL
- Relative MIC [29]: 16
- Relative MIC (PA-MDR, Pseudomonas aeruginosa LESB 58, evolved line 9 versus ancestor): 16
- MIC of evolved line [30]: 128 µg/mL
- Relative MIC [30]: 32
- Relative MIC (PA-MDR, Pseudomonas aeruginosa LESB 58, evolved line 10 versus ancestor): 32
- MIC of evolved line [31]: 128 µg/mL
- Relative MIC [31]: 32
- MIC of evolved line [32]: 128 µg/mL
- Relative MIC [32]: 32
- MIC of evolved line [33]: 128 µg/mL
- Relative MIC [33]: 32
- MIC of evolved line [34]: 128 µg/mL
- Relative MIC [34]: 32
- MIC of evolved line [35]: 128 µg/mL
- Relative MIC [35]: 32
- MIC of evolved line [36]: 128 µg/mL
- Relative MIC [36]: 32
- Relative MIC (log10) [24]: 1.806
- Relative MIC (log10) [2]: 1.806
- Relative MIC (log10) [25]: 1.806
- Relative MIC (log10) [26]: 1.806
- Relative MIC (log10) [3]: 1.806
- MIC of evolved line [4]: 256 µg/mL
- Relative MIC [4]: 64
- Relative MIC [5]: 64
- MIC of evolved line [6]: 256 µg/mL
- Relative MIC [6]: 64
- Relative MIC [7]: 64
- MIC of evolved line [8]: 128 µg/mL
- Relative MIC [8]: 32
- Relative MIC [9]: 32
- MIC of evolved line [10]: 256 µg/mL
- Relative MIC [10]: 64
- Relative MIC [11]: 64
- MIC of evolved line [12]: 128 µg/mL
- Relative MIC [12]: 32
- Relative MIC [13]: 32
- MIC of evolved line [14]: 256 µg/mL
- Relative MIC [14]: 64
- Relative MIC [15]: 64
- MIC of evolved line [16]: 256 µg/mL
- Relative MIC [16]: 64
- Relative MIC [17]: 64
- MIC of evolved line [18]: 128 µg/mL
- Relative MIC [18]: 32
- Relative MIC [19]: 32
- MIC of evolved line [20]: 256 µg/mL
- Relative MIC [20]: 64
- Relative MIC [21]: 64
- MIC of evolved line [22]: 256 µg/mL
- Relative MIC [22]: 64
- Relative MIC [23]: 64

SMILES: C[C@@H](O)[C@H]1C(=O)N2C(C(=O)O)=C(S[C@@H]3CN[C@H](C(=O)N(C)C)C3)[C@H](C)[C@H]12 [Meropenem]
- MIC of evolved line [29]: 256 µg/mL
- MIC of evolved line [30]: 32 µg/mL
- MIC of evolved line [4]: 16 µg/mL
- MIC of evolved line [6]: 64 µg/mL
- MIC of evolved line [10]: 64 µg/mL
- MIC of evolved line [14]: 64 µg/mL
- MIC of evolved line [18]: 32 µg/mL
- MIC of evolved line [22]: 64 µg/mL
